Test results taken from patent US12447135B2 (University of South Florida, priority 2021, dated 2025).

System: FFAR2 signaling
Test: cAMP-Glo assay, forskolin-induced cAMP in SK-N-SH cells
Assay type: cell-based, human
Conditions: 10 μM compound, 10 μM forskolin
Protocol: FFAR2 is a Gi/o signaling receptor, which reduces cytosolic cAMP (Falomir-Lockhart et al., 2019). To determine the FFAR2 signaling activating potential of selected compounds, the cAMP-Glo™ Assay was used to measure intracellular cAMP. SK-N-SH cells (1×10^3 cells per well) were plated in a white 96-well plate for 24 h and then treated with 10 μM compounds and 10 μM forskolin (a positive control) dissolved in induction buffer. The cAMP levels were detected using a Luminescence Microplate Reader.

Q: `CC12CCC(C1)C(C)(C)C2O` (centres unmarked) [Fenchol] was tested. Which “cAMP upon Forskolin-stimulation, ascending order” value did it give?
A: Fenchol<Carvamenthenol<α-Terpineol<Carene<Pentanone<Octopamine<Camphene

Q: And the “decrease in cAMP upon Forskolin-stimulation” value?
A: highest decrease
